Assay results published in PubChem BioAssay AID270 (DTP/NCI, 2004).
Values joined by “and” are separate entries in the source; they are usually repeats but may differ in a detail not shown here. Identical values can stand only once. Results filed as inconclusive are left out.

Test system: BDF1 mice, s.c. Lewis lung carcinoma, T/C %
Experiment: NCI In Vivo Anticancer Drug Screen. Data for tumor model Lewis Lung Carcinoma (subcutaneous) in B6D2F1 (BDF1) mice
Procedure, shortened: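 The value reflects a ratio in which the treated cohort's survival time or tumour size is compared against mice receiving only vehicle.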

[1] = endpoint: mean tumor weight, dose: 25.0 mg/kg/injection, schedule: Q01DX011 (ip), vehicle: carboxymethylcellulose (CMC), higher = larger tumour
[2] = endpoint: mean tumor weight, dose: 25.0 mg/kg/injection, schedule: Q01DX011 (ip), vehicle: saline, higher = larger tumour
[3] = endpoint: mean tumor weight, dose: 50.0 mg/kg/injection, schedule: Q01DX011 (ip), vehicle: saline, higher = larger tumour
[4] = endpoint: mean tumor weight, dose: 100.0 mg/kg/injection, schedule: Q01DX011 (ip), vehicle: saline, higher = larger tumour
[5] = endpoint: median survival time, dose: 50.0 mg/kg/injection, schedule: Q01DX009 (ip), vehicle: saline with Tween-80, higher = longer survival
[6] = endpoint: mean tumor weight, dose: 200.0 mg/kg/injection, schedule: Q01DX011 (ip), vehicle: saline, higher = larger tumour

O=C1c2c(O)ccc(O)c2C(=O)c2c(NCCNCCO)ccc(NCCNCCO)c21
T/C (endpoint: median survival time, dose: 0.25 mg/kg/injection, schedule: Q01DX009 (ip), vehicle: acid diluted with saline, higher = longer survival): 88 % of control
T/C (endpoint: median survival time, dose: 0.5 mg/kg/injection, schedule: Q01DX009 (ip), vehicle: acid diluted with saline, higher = longer survival): 95 % of control
T/C (endpoint: median survival time, dose: 0.5 mg/kg/injection, schedule: Q01DX009 (ip), vehicle: saline with Tween-80, higher = longer survival): 86 % of control and 106 % of control and 114 % of control
T/C (endpoint: median survival time, dose: 1.0 mg/kg/injection, schedule: Q01DX009 (ip), vehicle: acid diluted with saline, higher = longer survival): 102 % of control
T/C (endpoint: median survival time, dose: 1.0 mg/kg/injection, schedule: Q01DX009 (ip), vehicle: saline with Tween-80, higher = longer survival): 104 % of control and 105 % of control and 106 % of control
T/C (endpoint: median survival time, dose: 1.0 mg/kg/injection, schedule: Q## X004 (ip), vehicle: acid diluted with saline, higher = longer survival): 89 % of control
T/C (endpoint: median survival time, dose: 2.0 mg/kg/injection, schedule: Q01DX009 (ip), vehicle: saline with Tween-80, higher = longer survival): 95 % of control
T/C (endpoint: median survival time, dose: 2.0 mg/kg/injection, schedule: Q## X004 (ip), vehicle: acid diluted with saline, higher = longer survival): 89 % of control
T/C (endpoint: median survival time, dose: 4.0 mg/kg/injection, schedule: Q## X004 (ip), vehicle: acid diluted with saline, higher = longer survival): 101 % of control

CN[C@@H](C)[C@@H](O)c1ccccc1
T/C [1]: 123 % of control
T/C (endpoint: mean tumor weight, dose: 100.0 mg/kg/injection, schedule: Q01DX011 (ip), vehicle: carboxymethylcellulose (CMC), higher = larger tumour): 85 % of control
T/C (endpoint: mean tumor weight, dose: 200.0 mg/kg/injection, schedule: Q01DX011 (ip), vehicle: carboxymethylcellulose (CMC), higher = larger tumour): 72 % of control

O=C(O)C(=O)O.[U]
T/C (endpoint: mean tumor weight, dose: 5.0 mg/kg/injection, schedule: Q01DX011 (ip), vehicle: carboxymethylcellulose (CMC), higher = larger tumour): 37 % of control
T/C (endpoint: mean tumor weight, dose: 10.0 mg/kg/injection, schedule: Q01DX011 (ip), vehicle: carboxymethylcellulose (CMC), higher = larger tumour): 55 % of control and 78 % of control
T/C (endpoint: mean tumor weight, dose: 10.0 mg/kg/injection, schedule: Q01DX011 (ip), vehicle: saline, higher = larger tumour): 42 % of control
T/C (endpoint: mean tumor weight, dose: 20.0 mg/kg/injection, schedule: Q01DX011 (ip), vehicle: saline, higher = larger tumour): 27 % of control
T/C (endpoint: median survival time, dose: 4.0 mg/kg/injection, schedule: Q01DX009 (ip), vehicle: Klucel (hydroxypropylcellulose) (HPC), higher = longer survival): 103 % of control
T/C (endpoint: median survival time, dose: 16.0 mg/kg/injection, schedule: Q01DX009 (ip), vehicle: Klucel (hydroxypropylcellulose) (HPC), higher = longer survival): 101 % of control

CC(NC(=O)C1(N)CCCC1)C(=O)O (stereo not drawn)
T/C (endpoint: mean tumor weight, dose: 6.0 mg/kg/injection, schedule: Q01DX011 (ip), vehicle: carboxymethylcellulose (CMC), higher = larger tumour): 59 % of control
T/C [1]: 60 % of control

N#Cc1ccc(NC(=O)N(CCCl)N=O)cc1
T/C (endpoint: median tumor weight (est.), dose: 13.0 mg/kg/injection, schedule: Q01DX001 (ip), vehicle: Klucel (hydroxypropylcellulose) (HPC), higher = larger tumour): 83 % of control
T/C (endpoint: median tumor weight (est.), dose: 19.0 mg/kg/injection, schedule: Q01DX001 (ip), vehicle: Klucel (hydroxypropylcellulose) (HPC), higher = larger tumour): 118 % of control
T/C (endpoint: median tumor weight (est.), dose: 29.0 mg/kg/injection, schedule: Q01DX001 (ip), vehicle: Klucel (hydroxypropylcellulose) (HPC), higher = larger tumour): 109 % of control
T/C (endpoint: median tumor weight (est.), dose: 44.0 mg/kg/injection, schedule: Q01DX001 (ip), vehicle: Klucel (hydroxypropylcellulose) (HPC), higher = larger tumour): 73 % of control
T/C (endpoint: median tumor weight (est.), dose: 67.0 mg/kg/injection, schedule: Q01DX001 (ip), vehicle: Klucel (hydroxypropylcellulose) (HPC), higher = larger tumour): 39 % of control

O=C(O)c1cc(=O)cc(C(=O)O)o1
T/C [2]: 66 % of control
T/C [3]: 76 % of control
T/C [4]: 77 % of control

CS(C)=O
T/C (endpoint: mean tumor weight, dose: 250.0 mg/kg/injection, schedule: Q01DX011 (ip), vehicle: carboxymethylcellulose (CMC), higher = larger tumour): 68 % of control
T/C (endpoint: mean tumor weight, dose: 500.0 mg/kg/injection, schedule: Q01DX011 (ip), vehicle: carboxymethylcellulose (CMC), higher = larger tumour): 117 % of control
T/C (endpoint: mean tumor weight, dose: 1000.0 mg/kg/injection, schedule: Q01DX011 (ip), vehicle: carboxymethylcellulose (CMC), higher = larger tumour): 86 % of control
T/C (endpoint: mean tumor weight, dose: 2000.0 mg/kg/injection, schedule: Q01DX011 (ip), vehicle: carboxymethylcellulose (CMC), higher = larger tumour): 57 % of control
T/C (endpoint: median survival time, dose: 3.0 grams/kg/injection, schedule: Q01DX009 (ip), vehicle: saline, higher = longer survival): 101 % of control
T/C (endpoint: median survival time, dose: 6.0 grams/kg/injection, schedule: Q01DX009 (ip), vehicle: saline, higher = longer survival): 93 % of control

COc1ccc(CN2CCCN(Cc3ccc(OC)cc3)C2c2ccc(Cl)cc2Cl)cc1
T/C (endpoint: mean tumor weight, dose: 74.0 mg/kg/injection, schedule: Q01DX011 (ip), vehicle: other, higher = larger tumour): 119 % of control
T/C (endpoint: mean tumor weight, dose: 166.0 mg/kg/injection, schedule: Q01DX011 (ip), vehicle: other, higher = larger tumour): 111 % of control

O=[N+]([O-])c1ccc(Cl)c2c([N+](=O)[O-])cccc12
T/C (endpoint: median survival time, dose: 6.25 mg/kg/injection, schedule: Q01DX009 (ip), vehicle: Klucel (hydroxypropylcellulose) (HPC), higher = longer survival): 118 % of control
T/C (endpoint: median survival time, dose: 12.5 mg/kg/injection, schedule: Q01DX009 (ip), vehicle: Klucel (hydroxypropylcellulose) (HPC), higher = longer survival): 114 % of control
T/C (endpoint: median survival time, dose: 50.0 mg/kg/injection, schedule: Q01DX009 (ip), vehicle: Klucel (hydroxypropylcellulose) (HPC), higher = longer survival): 103 % of control
T/C (endpoint: median survival time, dose: 100.0 mg/kg/injection, schedule: Q01DX009 (ip), vehicle: Klucel (hydroxypropylcellulose) (HPC), higher = longer survival): 111 % of control

O=NN(CCF)C(=O)NC1CSCSC1
T/C (endpoint: median tumor weight (est.), dose: 14.0 mg/kg/injection, schedule: Q01DX001 (ip), vehicle: saline with Tween-80, higher = larger tumour): 61 % of control
T/C (endpoint: median tumor weight (est.), dose: 27.0 mg/kg/injection, schedule: Q01DX001 (ip), vehicle: saline with Tween-80, higher = larger tumour): 45 % of control
T/C (endpoint: median tumor weight (est.), dose: 41.0 mg/kg/injection, schedule: Q01DX001 (ip), vehicle: saline with Tween-80, higher = larger tumour): 8 % of control

C=C(C)C(=O)O[C@H]1[C@H]2[C@H](OC(=O)[C@H]2C)[C@H](O)[C@@H](C)[C@@H]2C=CC(=O)[C@]21C
T/C (endpoint: median survival time, dose: 15.0 mg/kg/injection, schedule: Q01DX009 (ip), vehicle: saline, higher = longer survival): 113 % of control
T/C (endpoint: median survival time, dose: 30.0 mg/kg/injection, schedule: Q01DX009 (ip), vehicle: saline, higher = longer survival): 104 % of control

Nc1nc2[nH]c(=O)cnc2c(=O)[nH]1
T/C (endpoint: median survival time, dose: 12.5 mg/kg/injection, schedule: Q01DX009 (ip), vehicle: saline with Tween-80, higher = longer survival): 97 % of control
T/C [5]: 99 % of control
T/C (endpoint: median survival time, dose: 100.0 mg/kg/injection, schedule: Q01DX009 (ip), vehicle: saline, higher = longer survival): 104 % of control
T/C (endpoint: median survival time, dose: 200.0 mg/kg/injection, schedule: Q01DX009 (ip), vehicle: saline, higher = longer survival): 104 % of control
T/C (endpoint: median survival time, dose: 400.0 mg/kg/injection, schedule: Q01DX009 (ip), vehicle: saline, higher = longer survival): 110 % of control

CCN(CC)c1nc(N(CC)CC)nc(N(CC)CC)n1
T/C (endpoint: median survival time, dose: 25.0 mg/kg/injection, schedule: Q01DX009 (ip), vehicle: saline with Tween-80, higher = longer survival): 95 % of control
T/C [5]: 105 % of control
T/C (endpoint: median survival time, dose: 100.0 mg/kg/injection, schedule: Q01DX009 (ip), vehicle: saline with Tween-80, higher = longer survival): 95 % of control
T/C (endpoint: median survival time, dose: 200.0 mg/kg/injection, schedule: Q01DX009 (ip), vehicle: saline with Tween-80, higher = longer survival): 104 % of control
T/C (endpoint: median survival time, dose: 400.0 mg/kg/injection, schedule: Q01DX009 (ip), vehicle: saline with Tween-80, higher = longer survival): 89 % of control

COC1C(OC(=O)/C=C/C=C/C=C/C=C/C(=O)O)CCC2(CO2)C1C1(C)OC1CC=C(C)C (stereo not drawn)
T/C [2]: 82 % of control
T/C [3]: 38 % of control and 49 % of control
T/C [4]: 54 % of control
T/C [6]: 23 % of control

COc1ccc(-c2oc3ccc(C)cc3c(=O)c2O)cc1
T/C (endpoint: mean tumor weight, dose: 1.9 mg/kg/injection, schedule: Q01DX011 (ip), vehicle: saline, higher = larger tumour): 91 % of control
T/C (endpoint: mean tumor weight, dose: 3.9 mg/kg/injection, schedule: Q01DX011 (ip), vehicle: saline, higher = larger tumour): 100 % of control
T/C (endpoint: mean tumor weight, dose: 7.8 mg/kg/injection, schedule: Q01DX011 (ip), vehicle: saline, higher = larger tumour): 80 % of control
T/C (endpoint: mean tumor weight, dose: 15.6 mg/kg/injection, schedule: Q01DX010 (ip), vehicle: saline, higher = larger tumour): 71 % of control
T/C (endpoint: mean tumor weight, dose: 15.6 mg/kg/injection, schedule: Q01DX011 (ip), vehicle: saline, higher = larger tumour): 67 % of control
T/C (endpoint: mean tumor weight, dose: 31.3 mg/kg/injection, schedule: Q01DX010 (ip), vehicle: saline, higher = larger tumour): 82 % of control
T/C (endpoint: mean tumor weight, dose: 62.5 mg/kg/injection, schedule: Q01DX010 (ip), vehicle: saline, higher = larger tumour): 81 % of control
T/C (endpoint: mean tumor weight, dose: 125.0 mg/kg/injection, schedule: Q01DX010 (ip), vehicle: saline, higher = larger tumour): 84 % of control

COC12C(COC(N)=O)C3=C(C(=O)C(C)=C(N)C3=O)N1CC1C2N1C (stereo not drawn)
T/C (endpoint: median survival time, dose: 2.0 mg/kg/injection, schedule: Q01DX011 (ip), vehicle: other, higher = longer survival): 98 % of control
T/C (endpoint: median survival time, dose: 4.0 mg/kg/injection, schedule: Q01DX011 (ip), vehicle: other, higher = longer survival): 96 % of control

CCOC(=O)NP(=O)(N1CC1)N1CC1
T/C (endpoint: mean tumor weight, dose: 2.5 mg/kg/injection, schedule: Q01DX011 (ip), vehicle: saline, higher = larger tumour): 61 % of control and 75 % of control
T/C (endpoint: mean tumor weight, dose: 5.0 mg/kg/injection, schedule: Q01DX011 (ip), vehicle: saline, higher = larger tumour): 35 % of control and 56 % of control

C[C@]12CC[C@H](O)C[C@@]1(O)CC[C@@H]1[C@@H]2CC[C@]2(C)[C@@H](c3ccc(=O)oc3)CC[C@]12O
T/C (endpoint: median survival time, dose: 1.25 mg/kg/injection, schedule: Q01DX009 (ip), vehicle: Klucel (hydroxypropylcellulose) (HPC), higher = longer survival): 97 % of control
T/C (endpoint: median survival time, dose: 2.5 mg/kg/injection, schedule: Q01DX009 (ip), vehicle: Klucel (hydroxypropylcellulose) (HPC), higher = longer survival): 98 % of control
T/C (endpoint: median survival time, dose: 10.0 mg/kg/injection, schedule: Q01DX009 (ip), vehicle: Klucel (hydroxypropylcellulose) (HPC), higher = longer survival): 104 % of control
T/C (endpoint: median survival time, dose: 20.0 mg/kg/injection, schedule: Q01DX009 (ip), vehicle: Klucel (hydroxypropylcellulose) (HPC), higher = longer survival): 113 % of control

C[n+]1cccc(C(=O)O)c1
T/C [3]: 116 % of control
T/C [4]: 75 % of control
T/C [6]: 60 % of control
